Results as given in article PMC9436958, “The synthesis of novel thioderivative chalcones and their influence on NF-κB, STAT3 and NRF2 signaling pathways in colorectal cancer cells” (Scientific Reports, 2022).
Like-named read-outs stand apart in the source and are kept apart here.

Key:
[1] = system: NF-κB p50; experiment: Western blot, NF-κB p50 protein level; type: cell-based; details: BAY 11-7082 5 µM; both tested cell lines
Method: (§1) Cytosolic and nuclear extracts were prepared using a Nuclear/Cytosol Fractionation Kit (BioVision Research, USA). Cytosolic extracts (for NF-κBp65, NF-κBp50, COX-2, iNOS, STAT3, c-Myc, Bcl-xl, Nrf2, SOD, GSTP, EGFR, Akt, p-Akt, Keap1, IKKα/β and β-actin) or nuclear extracts (for NF-κBp65, NF-κBp50, STAT3, p-STAT3, Nrf2, p-Nrf2 and lamin) were separated on 7.5%, 10% or 12% SDS–PAGE slab gels. Then, the proteins were transferred to a nitrocellulose Immobilon-P membrane. After blocking for 2 h with 10% skimmed milk, proteins were incubated with primary antibodies against NF-κBp65, NF-κBp50, COX-2, iNOS, STAT3, p-STAT3, c-Myc, Bcl-xl, Nrf2, p-Nrf2, SOD, GSTP, EGFR, Akt, p-Akt, Keap1, IKKα/β, β-actin, and lamin. Alkaline phosphatase (AP)-labeled anti-rabbit IgG, anti-goat IgG, and anti-mouse IgG secondary antibodies (Bio-Rad Laboratories, USA), as well as horseradish peroxidase (HRP)-conjugated anti-mouse IgG (Boster Bio, USA) secondary antibodies were used in the staining reaction. Bands were visualized by the AP Conjugate Substrate Kit NBT/BCIP or the chemiluminescent HRP substrate of the Clarity ECL Kit (Bio–Rad Laboratories, USA). The amount of immunoreactive product in each lane was determined using a ChemiDoc Imaging System (Bio–Rad Laboratories, USA). Values were calculated as relative absorbance units (RQ) per mg of protein and expressed as a percentage of the control.

[2] = system: NF-κB p65; experiment: Western blot, NF-κB p65 protein level; type: cell-based; details: BAY 11-7082 5 µM; both tested cell lines
Method: as §1

[3] = system: COX-2; experiment: COX-2 expression (qRT-PCR mRNA, Western blot protein); type: cell-based; details: BAY 11-7082 5 µM; both tested cell lines
Method: as §1
Total RNA from cells was isolated with the GeneMatrix Universal DNA/RNA/Protein Purification Kit (EurX, Poland). For the qRT-PCR analyses, the Maxima SYBR Green I/ROX qPCR Master Mix (2×) (Thermo Fisher Scientific, USA) and the thermal cycler LightCycler (Roche, Germany) were used. The protocol started with 5 min of enzyme activation at 95 °C, followed by 40–50 cycles at 95 °C for 15 s, 56 °C for 20 s, 72 °C for 40 s, and final elongation at 72 °C for 5 min. Melting curve analysis was used for amplicon verification. The expression levels of TATA-box-binding protein (TBP) and porphobilinogen deaminase (PBGD) were used to normalize the data. The Pfaffl comparative method was used to calculate fold change. Primers were designed using Beacon Designer software (the sequences of primers used to analyze genes are listed in Table 2 of the supplementary materials).

[4] = system: DLD-1 cells; experiment: Cell cycle distribution, PI staining, flow cytometry, DLD-1; type: cell-based; details: 48 h, BAY 11-7082 5 µM, 5 in higher (doubled) concentration
Method: (§2) The analysis of the cell cycle distribution was performed by propidium iodide (PI) staining. The addition of RNase A improved the specificity of PI binding to DNA. The Muse Cell Cycle Kit (Luminex, USA) and flow cytometric detection were performed with the Muse Cell Analyzer (Merck, Germany), according to the manufacturer’s protocol. Briefly, cells were seeded (2 × 10^5 cells per well) in 6-well plates and on the following day the analyzed compounds were added. Topotecan (Sigma-Aldrich, USA) was used as a positive control of cell cycle arrest. After 48 h cells were collected by trypsinization, fixed in cold 70% ethanol and stored at –20 °C. Then, fixed cells were collected and stained with PI, subjected to 30 min incubation at room temperature in the dark and analyzed by flow cytometry. Three independent experiments were performed. Data were analyzed by Muse 1.5 Analysis Software (Merck, Germany).

[5] = system: HCT116 cells; experiment: Cell cycle distribution, PI staining, flow cytometry, HCT116; type: cell-based; details: 48 h, BAY 11-7082 5 µM, 4 and 5 in higher (doubled) concentrations
Method: as §2

[6] = system: DLD-1 cells; experiment: Apoptosis, Annexin V / 7-AAD flow cytometry, DLD-1; type: cell-based; details: 48 h, mainly early and total apoptotic populations enriched
Method: (§3) Apoptosis was assessed by the detection of phosphatidylserine externalization based on Annexin V staining combined with fluorescent DNA intercalator 7-Aminoactinomycin D (7-AAD) what allowed for the discrimination between early and late apoptotic cells. The analysis was performed by flow cytometry using the Muse Annexin V & Dead Cell Kit (Luminex, USA) and the Muse Cell Analyzer (Merck, Germany), according to the manufacturer’s protocol. Cells were seeded (2 × 10^5 cells per well) in six-well plates and on the following day the analyzed compounds were added. Topotecan (Sigma-Aldrich, USA) was used as a positive control of apoptosis induction. After 48 h cells were collected by trypsinization, stained and after 20 min incubation at room temperature in the dark analyzed by flow cytometry. Three independent experiments were performed. Data were analyzed by Muse 1.5 Analysis Software (Merck, Germany).

[7] = system: HCT116 cells; experiment: Apoptosis, Annexin V / 7-AAD flow cytometry, HCT116; type: cell-based; details: 48 h, increase of early, late and total apoptosis
Method: as §3

[8] = system: DLD-1 cells; experiment: Wound healing assay (cell migration); type: cell-based; details: 24 h, 4 at standard concentration (1 μM), BAY 11-7082 5 µM
Method: Cell migration was assessed by the wound healing assay. DLD-1 cells were seeded into 24-well plates (5 × 10^5 cells per well) and were grown overnight to reach confluency. A scratch was performed using a 10 μl tip, wells were rinsed twice with PBS buffer to remove detached cells, and fresh medium with reduced FBS concentration (0.5%) containing the tested compounds was added. Subsequently, representative microscopic photographs of scratch areas were taken by JuLI FL microscope (NanoEntek, South Korea) direct after the addition of compounds and after 24 h. Area covered by cells (%) was assessed using JuLI FL software and the difference in the coverage of the growth area by DLD-1 cells between 0 and 24 h time points was calculated for each well. The experiment was repeated three times. The relative effect of the tested compounds on cell migration was calculated by comparing the difference in cell coverage area between compound-treated cells and DMSO-vehicle control (tested compound [area 24 h − area 0 h] / DMSO-vehicle control [area 24 h − area 0 h]).

[9] = system: Nrf2 signaling pathway; parameters: method as in PMID 23085367, PMID 34120541; details: cited from earlier work
[10] = system: NF-κB; parameters: method as in PMID 34120541; details: PANC-1 pancreatic cancer cells; cited from earlier work
[11] = system: COX-2; parameters: method as in PMID 34120541; details: PANC-1 pancreatic cancer cells; cited from earlier work

Row | Structure (SMILES) | level of NF-κBp50, compared with the studied chalcones [1] | level of NF-κBp65, compared with the studied chalcones [2] | level of COX-2, compared with the studied chalcones [3] | cell cycle distribution (in words) [4] | cell cycle distribution (in words) [5] | induction of apoptosis [6] | induction of apoptosis [7] | reduction of cell migration rate (wound healing) vs DMSO-treated cells [8] | activation of the Nrf2 signaling pathway ([9]; HepG2 hepatoma cells) | activation of the Nrf2 signaling pathway ([9]; PANC-1 pancreatic cancer cells) | activation of NF-κB [10] | binding of both NF-κB subunits to DNA [10] | expression of COX-2 [11]
1 | Cc1ccc(S(=O)(=O)/C=C/C#N)cc1 [BAY 11-7082, reference compound] | more potent inhibition | more potent inhibition | more potent inhibition | decrease of G1/G0 cell cycle phase | decreased G1/G0 phases; increased S and G2/M phases | able to induce apoptosis | able to induce apoptosis | at the same level as DMSO-treated cells | – | – | – | – | –
2 | COc1cc(O)c(CC=C(C)C)c(O)c1C(=O)/C=C/c1ccc(O)cc1 [xanthohumol] | – | – | – | – | – | – | – | – | significantly increased activation | significantly increased activation | decreased the activation of NF-κB | decreased | decreased
